{"source": "ChEMBL document CHEMBL5543162", "about": "“Discovery of a Novel Orally Bioavailable FLT3-PROTAC Degrader for Efficient Treatment of Acute Myeloid Leukemia and Overcoming Resistance of FLT3 Inhibitors” (J Med Chem, 2024)", "key": {"[1]": {"tested_on": "BaF3", "assay": "Antiproliferative activity against mouse Ba/F3 cells expressing FLT3-ITD D835V mutant incubated for 48 hrs by CCK8 assay", "type": "functional, cell-based", "conditions": "BaF3, 48 h"}, "[2]": {"assay": "Toxicity in nu/nu mouse xenografted with human MV4-11 cells assessed as damage in lung at 1.25 to 10 mg/kg, po administered daily for 2 weeks by H and E staining based analysis", "type": "organism-based", "conditions": "in vivo, 336 h, dose 1.25-10 mg/kg"}, "[3]": {"tested_on": "BaF3", "assay": "Antiproliferative activity against mouse Ba/F3 cells expressing FLT3-ITD Y842H mutant incubated for 48 hrs by CCK8 assay", "type": "functional, cell-based", "conditions": "BaF3, 48 h"}, "[4]": {"assay": "Stability in dog liver microsomes assessed as hepatic clearance", "type": "ADME, Canis lupus familiaris, Microsome"}, "[5]": {"tested_on": "MV4-11", "assay": "Antitumor activity against human MV4-11 cells xenografted in nu/nu mouse at 5 mg/kg, po administered daily for 2 weeks relative to control", "type": "functional", "conditions": "MV4-11, 336 h, read-out: TGI"}, "[6]": {"tested_on": "Protein cereblon/Receptor-type tyrosine-protein kinase FLT3 (Homo sapiens), P36888+Q96SW2 [UNDEFINED MUTATION]", "sequence (P36888 whole entry, looked up, stated change not applied)": "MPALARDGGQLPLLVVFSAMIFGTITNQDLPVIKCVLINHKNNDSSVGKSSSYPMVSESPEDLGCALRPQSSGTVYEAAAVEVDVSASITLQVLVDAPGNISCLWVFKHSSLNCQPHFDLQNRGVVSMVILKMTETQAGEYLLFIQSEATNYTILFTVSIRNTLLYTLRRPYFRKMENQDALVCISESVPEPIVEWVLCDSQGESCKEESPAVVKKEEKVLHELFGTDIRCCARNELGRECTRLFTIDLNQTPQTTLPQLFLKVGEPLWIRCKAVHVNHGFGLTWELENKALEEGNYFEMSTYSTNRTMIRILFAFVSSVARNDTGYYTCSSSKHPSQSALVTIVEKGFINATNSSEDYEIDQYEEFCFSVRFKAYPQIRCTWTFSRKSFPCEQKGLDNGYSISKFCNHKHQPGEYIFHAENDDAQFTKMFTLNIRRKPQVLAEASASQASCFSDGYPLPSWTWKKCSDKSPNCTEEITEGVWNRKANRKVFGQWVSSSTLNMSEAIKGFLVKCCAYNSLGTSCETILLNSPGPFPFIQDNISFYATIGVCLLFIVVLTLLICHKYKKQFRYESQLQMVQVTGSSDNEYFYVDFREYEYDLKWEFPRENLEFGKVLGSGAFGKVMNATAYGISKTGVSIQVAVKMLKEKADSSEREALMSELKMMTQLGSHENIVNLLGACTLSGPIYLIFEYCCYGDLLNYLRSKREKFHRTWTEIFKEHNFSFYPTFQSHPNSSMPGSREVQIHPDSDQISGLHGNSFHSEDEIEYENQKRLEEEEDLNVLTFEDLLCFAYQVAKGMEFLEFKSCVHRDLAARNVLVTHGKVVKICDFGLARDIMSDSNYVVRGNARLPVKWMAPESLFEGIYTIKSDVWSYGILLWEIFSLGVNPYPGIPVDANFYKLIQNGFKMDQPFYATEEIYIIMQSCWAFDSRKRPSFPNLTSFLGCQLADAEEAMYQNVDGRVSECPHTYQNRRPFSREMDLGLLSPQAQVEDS", "sequence (Q96SW2 whole entry, looked up, stated change not applied)": "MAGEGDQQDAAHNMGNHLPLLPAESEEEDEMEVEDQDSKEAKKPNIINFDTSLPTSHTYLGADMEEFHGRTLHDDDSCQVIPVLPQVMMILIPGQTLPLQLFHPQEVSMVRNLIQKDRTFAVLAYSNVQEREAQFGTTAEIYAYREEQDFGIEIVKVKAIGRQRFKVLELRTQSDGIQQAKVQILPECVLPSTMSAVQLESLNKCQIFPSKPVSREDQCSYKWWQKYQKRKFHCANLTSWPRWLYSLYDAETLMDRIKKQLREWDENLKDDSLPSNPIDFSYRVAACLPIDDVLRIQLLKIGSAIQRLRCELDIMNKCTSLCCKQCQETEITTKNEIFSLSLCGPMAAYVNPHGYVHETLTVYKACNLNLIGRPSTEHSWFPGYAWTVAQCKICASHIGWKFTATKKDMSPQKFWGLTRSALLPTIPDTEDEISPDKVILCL", "assay": "PROTAC activity at CRBN/FLT3-ITD mutant in human MOLM-13 cells assessed as decrease in STAT5 level incubated for 12 hrs by Western blot analysis", "type": "cell-based", "conditions": "dose <= 20.0 nM"}, "[7]": {"assay": "Toxicity in nude mouse xenografted with human MV4-11 cells assessed as change in body weight at 120 mg/kg, po administered daily for 15 days", "type": "organism-based", "conditions": "in vivo, 360 h, time 15 day"}, "[8]": {"assay": "Cmax in Sprague-Dawley rat at 10 mg/kg, po measured for 24 hrs by LC-MS/MS analysis", "type": "ADME, organism-based", "conditions": "in vivo"}, "[9]": {"tested_on": "Protein cereblon/Receptor-type tyrosine-protein kinase FLT3 (Homo sapiens), P36888+Q96SW2 [UNDEFINED MUTATION]", "assay": "PROTAC activity at CRBN/FLT3-ITD mutant in human MOLM-13 cells assessed as decrease in S6K level at 20 nM by Western blot analysis", "type": "cell-based", "conditions": "time <= 12.0 hrs, TDE = time-dependent effect"}, "[10]": {"assay": "Stability in mouse liver microsomes assessed as intrinsic clearance", "type": "ADME, Microsome", "conditions": "read-out: CLH"}, "[11]": {"assay": "Toxicity in nu/nu mouse xenografted with human MV4-11 cells assessed as change in body weight at 1.25 to 10 mg/kg, po administered daily for 2 weeks", "type": "organism-based", "conditions": "in vivo, 336 h, dose 1.25-10 mg/kg"}, "[12]": {"assay": "Toxicity in NSG mouse xenografted with human MV4-11 cells expressing luciferase assessed as obvious adverse response at 1.25 to 10 mg/kg, po administered daily for 3 weeks", "type": "organism-based", "conditions": "in vivo, 504 h, dose 1.25-10 mg/kg"}, "[13]": {"assay": "Toxicity in nu/nu mouse xenografted with human MV4-11 cells assessed as damage in heart at 1.25 to 10 mg/kg, po administered daily for 2 weeks by H and E staining based analysis", "type": "organism-based", "conditions": "in vivo, 336 h, dose 1.25-10 mg/kg"}, "[14]": {"assay": "Stability in Sprague-Dawley rat intestinal fluid at 50 ug/ml incubated upto 8 hrs by LC-MS/MS analysis", "type": "ADME, tissue-based, Intestine", "conditions": "simulated gi fluid, at 50 µg/mL"}, "[15]": {"molecular_target": "Cytochrome P450 2C9 (Homo sapiens, UniProt P11712)", "sequence (P11712 whole entry)": "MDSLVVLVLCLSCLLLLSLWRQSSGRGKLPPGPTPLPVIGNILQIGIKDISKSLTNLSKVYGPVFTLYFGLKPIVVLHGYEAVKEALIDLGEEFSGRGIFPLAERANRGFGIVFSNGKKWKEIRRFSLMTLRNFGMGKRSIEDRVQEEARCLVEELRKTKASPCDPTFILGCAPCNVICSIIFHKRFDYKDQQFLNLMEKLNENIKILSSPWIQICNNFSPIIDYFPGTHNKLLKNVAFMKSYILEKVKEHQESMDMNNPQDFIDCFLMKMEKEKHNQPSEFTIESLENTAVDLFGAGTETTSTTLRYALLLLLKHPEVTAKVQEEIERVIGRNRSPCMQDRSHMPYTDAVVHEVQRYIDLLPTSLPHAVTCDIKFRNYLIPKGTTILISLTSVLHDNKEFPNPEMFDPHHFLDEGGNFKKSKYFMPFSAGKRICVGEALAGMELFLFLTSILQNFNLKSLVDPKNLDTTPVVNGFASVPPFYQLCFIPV", "assay": "Inhibition of CYP2C9 (unknown origin)", "type": "ADME"}, "[16]": {"molecular_target": "Protein cereblon/Receptor-type tyrosine-protein kinase FLT3 (Homo sapiens, UniProt P36888+Q96SW2)", "sequence (P36888 whole entry, looked up, change not shown)": "as the sequence (P36888 whole entry, looked up, stated change not applied) above", "sequence (Q96SW2 whole entry, looked up, change not shown)": "as the sequence (Q96SW2 whole entry, looked up, stated change not applied) above", "assay": "(§1) PROTAC activity at CRBN/FLT3-ITD mutant in human MV4-11 cells assessed as protein degradation by Western blot analysis", "type": "cell-based"}, "[17]": {"tested_on": "Protein cereblon/Receptor-type tyrosine-protein kinase FLT3 (Homo sapiens), P36888+Q96SW2 [UNDEFINED MUTATION]", "assay": "as §1", "type": "cell-based"}, "[18]": {"molecular_target": "T1, Cytochrome P450 1A2 (Homo sapiens, UniProt P05177)", "T1 sequence (P05177 whole entry)": "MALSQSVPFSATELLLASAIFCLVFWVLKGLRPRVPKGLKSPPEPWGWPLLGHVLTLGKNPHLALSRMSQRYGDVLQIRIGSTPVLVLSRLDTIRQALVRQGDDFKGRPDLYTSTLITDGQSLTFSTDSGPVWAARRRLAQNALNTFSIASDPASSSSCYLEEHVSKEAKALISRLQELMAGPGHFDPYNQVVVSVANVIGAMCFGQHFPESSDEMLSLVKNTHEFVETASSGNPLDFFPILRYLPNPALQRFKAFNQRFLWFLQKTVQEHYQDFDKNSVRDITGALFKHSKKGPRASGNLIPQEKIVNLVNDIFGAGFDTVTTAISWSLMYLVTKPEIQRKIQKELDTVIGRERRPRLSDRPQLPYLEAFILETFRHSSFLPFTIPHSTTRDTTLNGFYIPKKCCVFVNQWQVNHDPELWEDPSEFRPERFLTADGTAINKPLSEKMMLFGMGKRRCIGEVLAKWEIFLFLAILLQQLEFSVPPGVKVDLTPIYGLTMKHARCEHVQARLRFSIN", "assay": "Inhibition of CYP1A2 (unknown origin)", "type": "ADME"}, "[19]": {"assay": "Antiproliferative activity against mouse Ba/F3 FLT3-ITD cells incubated for 48 hrs by CCK8 assay", "type": "functional, cell-based"}, "[20]": {"assay": "AUC (0 to t) in Sprague-Dawley rat at 10 mg/kg, po measured for 24 hrs by LC-MS/MS analysis", "type": "ADME, organism-based", "conditions": "in vivo"}, "[21]": {"tested_on": "MV4-11", "assay": "Antitumor activity against human MV4-11 cells xenografted in nu/nu mouse assessed as decrease in Ki67 level at 1.25 to 10 mg/kg, po administered daily for 2 weeks by IHC analysis", "type": "functional, organism-based", "conditions": "dose 1.25-10 mg/kg"}, "[22]": {"assay": "Antiproliferative activity against human HL-60 cells expressing wild-type FLT3 incubated for 48 hrs by CCK8 assay", "type": "toxicity, cell-based"}, "[23]": {"tested_on": "BaF3", "assay": "Antiproliferative activity against mouse Ba/F3 cells expressing FLT3-ITD F691L mutant incubated for 48 hrs by CCK8 assay", "type": "functional, cell-based", "conditions": "BaF3, 48 h"}, "[24]": {"tested_on": "Protein cereblon/Receptor-type tyrosine-protein kinase FLT3 (Homo sapiens), P36888+Q96SW2 [UNDEFINED MUTATION]", "assay": "PROTAC activity at CRBN/FLT3-ITD mutant in human MV4-11 cells assessed as decrease in ERK level incubated for 12 hrs by Western blot analysis", "type": "cell-based", "conditions": "dose <= 20.0 nM"}, "[25]": {"tested_on": "Protein cereblon/Receptor-type tyrosine-protein kinase FLT3 (Homo sapiens), P36888+Q96SW2 [UNDEFINED MUTATION]", "assay": "PROTAC activity at CRBN/FLT3-ITD in human MV4-11 cells assessed as effect on PI3K-Akt signalling pathway by KEGG analysis", "type": "cell-based"}, "[26]": {"tested_on": "MOLM-13", "assay": "Antiproliferative activity against human MOLM-13 cells incubated for 48 hrs by CCK8 assay", "type": "functional, cell-based", "conditions": "MOLM-13, 48 h"}, "[27]": {"assay": "Stability in Sprague-Dawley rat plasma at 50 ug/ml incubated upto 8 hrs by LC-MS/MS analysis", "type": "ADME, cell-free", "conditions": "at 50 µg/mL"}, "[28]": {"assay": "Clearance in Sprague-Dawley rat at 1 mg/kg, iv measured for 24 hrs by LC-MS/MS analysis", "type": "ADME, organism-based", "conditions": "in vivo"}, "[29]": {"tested_on": "MOLM-13", "assay": "Induction of apoptosis in human MOLM-13 cells incubated for 24 hrs by Annexin V-FITC/PI staining based flow cytometry", "type": "functional, cell-based", "conditions": "dose 25-100 nM"}, "[30]": {"tested_on": "Protein cereblon/Receptor-type tyrosine-protein kinase FLT3 (Homo sapiens), P36888+Q96SW2 [UNDEFINED MUTATION]", "assay": "PROTAC activity at CRBN/FLT3-ITD mutant in human MV4-11 cells assessed as protein degradation at 100 nM incubated for 24 hrs followed by compound washout measured upto 48 hrs by Western blot analysis", "type": "cell-based", "conditions": "time 72.0 hrs"}, "[31]": {"assay": "Oral bioavailability in Sprague-Dawley rat at 10 mg/kg measured for 24 hrs by LC-MS/MS analysis", "type": "ADME, organism-based", "conditions": "in vivo"}, "[32]": {"tested_on": "Protein cereblon/Receptor-type tyrosine-protein kinase FLT3 (Homo sapiens), P36888+Q96SW2 [UNDEFINED MUTATION]", "assay": "PROTAC activity at CRBN/FLT3-ITD mutant in human MV4-11 cells assessed as decrease in STAT5 level at 20 nM by Western blot analysis", "type": "cell-based", "conditions": "time <= 12.0 hrs, TDE = time-dependent effect"}, "[33]": {"tested_on": "MV4-11", "assay": "Antitumor activity against human MV4-11 cells xenografted in nu/nu mouse at 10 mg/kg, po administered daily for 2 weeks relative to control", "type": "functional", "conditions": "MV4-11, 336 h, read-out: TGI"}}, "note": "The source made the active and inactive calls. The calls are words filed in the database; no cut-off is given here.", "data": [{"smiles": "Cc1c(NC(=O)CN2CCN(CC3CCN(c4ccc5c(c4)C(=O)N(C4CCC(=O)NC4=O)C5=O)CC3)CC2)c[nH]c1/C=C1\\C(=O)Nc2ccc(F)cc21", "note": "(stereo not drawn)", "values": [{"measurement": "IC50", "setting": "[1]", "result": 45.1, "unit": "nM"}, {"measurement": "Activity", "setting": "[2]", "result": "Non-Toxic"}, {"measurement": "IC50", "setting": "[3]", "result": 46.7, "unit": "nM"}, {"measurement": "CLhep predicted", "setting": "[4]", "result": 11.3, "unit": "mL/min/kg"}, {"measurement": "inhibition in vivo at 5 mg/kg", "setting": "[5]", "result": 97.5, "unit": "%"}, {"measurement": "Activity", "setting": "[6]", "result": "Dose-Dependent Effect"}, {"measurement": "Activity", "setting": "[7]", "result": "Non-Toxic"}, {"measurement": "Cmax", "setting": "[8]", "result": 1120, "unit": "ng/mL"}, {"measurement": "Activity", "setting": "[9]", "result": "Tde"}, {"measurement": "CLint scaled", "setting": "[10]", "result": 92.7, "unit": "mL/min/kg"}, {"measurement": "Activity", "setting": "[11]", "result": "Non-Toxic"}, {"measurement": "Activity", "setting": "[12]", "result": "Non-Toxic"}, {"measurement": "Activity", "setting": "[13]", "result": "Non-Toxic"}, {"measurement": "Stability", "setting": "[14]", "result": "Stable"}, {"measurement": "IC50", "setting": "[15]", "result": "> 50000", "unit": "nM"}, {"measurement": "DC50", "setting": "[16]", "result": 7.4, "unit": "nM"}, {"measurement": "Activity", "setting": "[17]", "result": "Dose-Dependent Effect"}, {"measurement": "IC50", "setting": "[18]", "result": "> 50000", "unit": "nM"}, {"measurement": "IC50", "setting": "[19]", "result": 17, "unit": "nM"}, {"measurement": "AUC(0-t) at 24 h", "setting": "[20]", "result": 14700, "unit": "ng·h/mL"}, {"measurement": "Activity", "setting": "[21]", "result": "Active"}, {"measurement": "IC50 at 48 h", "setting": "[22]", "result": "> 40000", "unit": "nM"}, {"measurement": "IC50", "setting": "[23]", "result": 66.2, "unit": "nM"}, {"measurement": "Activity", "setting": "[24]", "result": "Dose-Dependent Effect"}, {"measurement": "Activity", "setting": "[25]", "result": "Active"}, {"measurement": "IC50", "setting": "[26]", "result": 170, "unit": "nM"}, {"measurement": "Stability", "setting": "[27]", "result": "Stable"}, {"measurement": "clearance", "setting": "[28]", "result": 3.5, "unit": "mL/min/kg"}, {"measurement": "Activity", "setting": "[29]", "result": "Dose-Dependent Effect"}, {"measurement": "Activity", "setting": "[30]", "result": "Active"}, {"measurement": "bioavailability", "setting": "[31]", "result": 53, "unit": "%"}, {"measurement": "Activity", "setting": "[32]", "result": "Tde"}, {"measurement": "inhibition in vivo at 10 mg/kg", "setting": "[33]", "result": 100, "unit": "%"}]}]}
